Consider 21 molecules from patent US20150031686A1, “PHENYL-OXAZOLYL DERIVATIVES, PREPARATION METHOD THEREOF, AND RELATED APPLICATION OF THE PHENYL-OXAZOLYL DERIVATIVES AS AN IMPDH INHIBITOR” (INSTITUTE OF MEDICINAL BIOTECHNOLOGY, CHINESE ACADEMY OF …, priority 2012, published 2015).

In brackets after ≈: the same amount, converted by molar mass.

Test [1] deals with human hepatoma cell HepG2. Description: In vitro human hepatoma cell HepG2 inhibitory activity (MTT). The class given is cell-based. To be noted: HepG2, 48 h; for IC50: Homo sapiens. The text has this: (§1) According to the progress in the studies on anticancer drugs using IMPDH as a target, the present invention measured inhibitory activities of the compounds of present invention against human hepatoma cell HepG2 and human lung adenocarcinoma cell A549, respectively, the measured results are shown in Table 5:
In Vitro Human Hepatoma Cell HepG2 Inhibitory Activity Measurement
Collect well growing tumor cells, prepare 6×10^4/ml cell suspension in RPMI-1640 or DMEM culture medium containing 10% FBS, seed in 96-well plates, 100 μl suspension each well, incubate at 37° C. under 5% CO2 atmosphere for 24 h, add the test solution (final concentration of drug: 0.625, 1.25, 2.5, 5.0, 10 μg/ml), for each concentration set three parallel holes, set positive control (cisplatin 10, 1, 0.1 μg/ml) and a blank control simultaneously. After culture for 48 h discard the supernatants, add into each well 10 μl MTT solution (5 mg/ml, prepared with RPMI-1640 medium), continue culturing for 4 It, add into each hole 100 μl acidified isopropanol cell lysate, culture overnight, measure absorbance (A) values with Bio-Tek MQX200 type microplate reader with the detection wavelength at 540 nm, and reference wavelength 450 nm. Calculate the inhibition rate as follows: inhibition rate=(Ablank−Asample)/Ablank control×100%. Use Graphpad Prism 5 statistical software to calculate IC50.

In test [2] the test system is human lung adenocarcinoma cell A549. Description: In vitro human lung adenocarcinoma cell A549 inhibitory activity (MTT). The class given is cell-based. The conditions noted are these: A549, 48 h; for IC50: Homo sapiens.
Excerpt: as §1
In Vitro Human Lung Adenocarcinoma Cell A549 Inhibitory Activity Measurement
Cell lines: human lung adenocarcinoma cell A549. Collect well growing tumor cells, prepare cell suspension with Ham's F12 culture solution containing 10% fetal calf serum medium, seed the suspension in 96-well plates, each well 100 μl suspension at 5000 cells/well, incubate at 37° C., under 5% CO2 atmosphere, 24 h later, add 2×drug solution […], each concentration in three parallel holes, set the blank control simultaneously. After culture for 48 h, add 20 μl (5 mg/ml) MTT to each well, culture 4 h, discard the supernatants. Measure absorbance (A) values using Bio-Rad 680 microplate reader at a detection wavelength of 570 nm, the survival rate (%) is calculated as follows: AsampleAblank control×100%. Use statistical software Graphpad Prism5 to calculate IC50. After primary screening of all samples, adjust the concentration gradient of the samples with IC50<100 μg/ml to do additional screenings, which are carried out with two parallel determinations.

A further test deals with IMPDH. Description: IMPDH inhibition activity (A340, IMP substrate, NAD). The test is classed as biochemical. To be noted: compound at 10 μg/mL. Here is the method: Measurement of IMPDH Inhibitor Activity
In 96-well plates, use IMP as the substrate and NAD, NADH as chromogenic agents to determine the activity of the compounds described in this invention as IMPDH inhibitor. Add 2 μl of each of the tested sample solution, 20 μl enzyme extract and 30 μl IMP into a sample well in the 96-well plates; 2 μl DMSO and 30 μl IMP solution into a control well; 2 μl DMSO and 20 μl IMPDH buffer instead of the enzyme extract and 30 μl IMP solution into a blank well. Keep plates at constant 37° C. for 15 min, measure absorbance values A340 (OD1) of the solutions in various wells; subsequently, add into each well with 50 μl NAD, keep at constant 37° C. for 50 min, then measure A340 (OD2) values. Calculate IMPDH inhibition rates of samples as follows: Inhibition (%)=[(OD2−OD1)control−(OD2−OD1)Sample]/[(OD2−OD1)control−(OD2−OD1)Blank]×100%.

The test system of test [3] is Coxsackie virus type B3 (COX-B3). In words: Anti-Coxsackie virus type B3 (COX-B3) activity, CPE in Vero cells. The test is classed as cell-based. To be noted: Reed-Muench. Put shortly: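 Vero cells infected with 10^−5 COX-B3 or COX-B6 virus, adsorbed 2 h; virus removed, then compounds added at eight 3-fold dilutions, ribavirin as positive control. CPE scored when virus controls reached 4+; IC50 by Reed-Muench.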

Test [4] deals with Coxsackie virus type B6 (COX-B6). In words: Anti-Coxsackie virus type B6 (COX-B6) activity, CPE in Vero cells. To be noted: Reed-Muench. The class given is cell-based. Here is the method: With Vero (African green monkey kidney) cells as viral hosts, inhibitory effects of the compounds of present invention on the grades of pathological lesions by coxsackievirus B3 (COX-B3), B6 (COX-B6) viruses in Vero cells were determined. The measured results of viral inhibitory activity of the compounds are shown in Table 3 and Table 4; wherein RBV is the control drug ribavirin. The inhibitory activities of the measured compounds against coxsackievirus B3, B6 were stronger than the control.
Screening of Anti-B3, B6 Type Coxsackie Viruses (COX-B3, COX-B6) Activity of the Samples
Prepare stock solutions of COX-B3 (or COX-B6) virus strains as well as tested compounds in DMSO before use. Before tests, dilute the stock solution with culture solution into a certain concentration and then dilute 3 times to make a total of eight dilutions. Use ribavirin (RBV) as positive control. Test procedures are as follows: seed Vero cells into 96-well culture plates, infect with 10^−5 Coxsackie virus of B3 (or B6) type, 24 hours later; adsorb subsequently for 2 hours, then discard the virus solution, add in the sample compounds and the positive control according to the abovementioned dilutions, set cell control wells and virus control wells simultaneously. When the cytopathic effect (CPE) of cells in the virus control wells reach 4+, observe CPE of the cells in each group. Use Reed-Muench method to calculate 50% inhibitory concentration (IC50) of the sample compounds against coxsackie virus B3 (or B6) type.

Regarding `N.N.[Cl][Pt][Cl]` [Cisplatin, reference compound], in test [1], the “HepG2 IC50” value worked out at 104.1 µg/mL. Moreover, the “A549 IC50” value in test [2] came to 263.4 µg/mL.
In the case of `COc1cc(NCc2cccs2)ccc1-c1cnco1` [Compound 1, N-(thien-2-ylmethyl)-3-methoxy-4-(oxazol-5-yl) aniline], in the test with IMPDH, the “inhibition rate (%) 10 μg/mL” value is 65.7%. Moreover, the IC50 in test [3] turned out to be 0.44 µg/mL (≈ 1.54 µM); in test [4], 0.44 µg/mL (≈ 1.54 µM); in test [1], 0.95 µg/mL (≈ 3.32 µM).
For `COc1cc(NCc2ccc(C)s2)ccc1-c1cnco1` [Compound 2, N-(5-methylthien-2-ylmethyl)-3-methoxy-4-(oxazol-5-yl) aniline], the “inhibition rate (%) 10 μg/mL” value in the test with IMPDH is listed as 68.7%. For the same molecule, the IC50 in test [3] is 0.23 µg/mL (≈ 0.766 µM); in test [4] it was 0.63 µg/mL (≈ 2.1 µM); in test [1], 7.95 µg/mL (≈ 26.5 µM); in test [2], 18.6 µg/mL (≈ 61.9 µM).
On to `CCc1ccc(CNc2ccc(-c3cnco3)c(OC)c2)s1` [Compound 3, N-(5-ethylthien-2-ylmethyl)-3-methoxy-4-(oxazol-5-yl) aniline], for which the IC50 was 0.35 µg/mL (≈ 1.11 µM) in test [3], 1.43 µg/mL (≈ 4.55 µM) in test [4], 20.9 µg/mL (≈ 66.5 µM) in test [1] and 10.7 µg/mL (≈ 34.2 µM) in test [2].
On to `COc1cc(NCc2ccc(Br)s2)ccc1-c1cnco1` [Compound 5, N-(5-bromothien-2-ylmethyl)-3-methoxy-4-(oxazol-5-yl) aniline], for which the “inhibition rate (%) 10 μg/mL” value in the test with IMPDH came out at 58.9%. The IC50 is 0.47 µg/mL (≈ 1.29 µM) in test [3], 0.44 µg/mL (≈ 1.2 µM) in test [4], 83.4 µg/mL (≈ 228 µM) in test [1] and 16.5 µg/mL (≈ 45.2 µM) in test [2].
For `COc1cc(NCc2ccc(-c3ccccc3)s2)ccc1-c1cnco1` [Compound 6, N-(5-phenylthien-2-ylmethyl)-3-methoxy-4-(oxazol-5-yl) aniline], the IC50 was found to be 0.47 µg/mL (≈ 1.3 µM) in test [3], 0.27 µg/mL (≈ 0.745 µM) in test [4], 31.8 µg/mL (≈ 87.6 µM) in test [1] and 16.9 µg/mL (≈ 46.6 µM) in test [2].
Taken in the same sequence, the figures for `COc1cc(NCc2ccc(C(=O)O)s2)ccc1-c1cnco1` [Compound 7, 5-(3-methoxy-4-oxazol-5-yl-anilinomethyl)-thien-2-yl carboxylic acid] were above 66.7 µg/mL, 18.5 µg/mL (≈ 56 µM), above 100 µg/mL and above 100 µg/mL.
The corresponding values for `COc1cc(NCc2cc3ccccc3s2)ccc1-c1cnco1` [Compound 10, N-(benzothien-2-ylmethyl)-3-methoxy-4-(oxazol-5-yl) aniline] are 0.27 µg/mL (≈ 0.803 µM), 0.36 µg/mL (≈ 1.07 µM), 21.7 µg/mL (≈ 64.5 µM) and 26.8 µg/mL (≈ 79.5 µM).
`COc1cc(NCc2ccsc2)ccc1-c1cnco1` [Compound 11, N-(thien-3-ylmethyl)-3-methoxy-4-(oxazol-5-yl) aniline]: in the test with IMPDH, the “inhibition rate (%) 10 μg/mL” value is reported as 69.6%. In addition, the half-inhibitory concentration (IC50) in test [3] stood at 0.44 µg/mL (≈ 1.54 µM); in test [4] it was 1.33 µg/mL (≈ 4.64 µM); in test [1] it was 42.1 µg/mL (≈ 147 µM); in test [2] it was 29.7 µg/mL (≈ 104 µM).
As to `COc1cc(NCc2csc3ccccc23)ccc1-c1cnco1` [Compound 20, N-(benzothien-3-ylmethyl)-3-methoxy-4-(oxazol-5-yl) aniline], the “inhibition rate (%) 10 μg/mL” value in the test on IMPDH came out at 47.7%. The IC50 came out at 0.64 µg/mL (≈ 1.9 µM) in test [3], 0.82 µg/mL (≈ 2.44 µM) in test [4], 2.88 µg/mL (≈ 8.57 µM) in test [1] and 11.6 µg/mL (≈ 34.5 µM) in test [2].
With `COc1ccc(-c2cnco2)cc1NCc1cccs1` [Compound 21, N-(thien-2-ylmethyl)-2-methoxy-5-(oxazol-5-yl) aniline], the IC50 in test [3] was 2.47 µg/mL (≈ 8.63 µM); in test [4], 3.25 µg/mL (≈ 11.3 µM); in test [1], above 100 µg/mL; in test [2] it was 122 µg/mL (≈ 427 µM).
The corresponding values for `COc1ccc(-c2cnco2)cc1NCc1ccc(C)s1` [Compound 22, N-(5-methylthien-2-ylmethyl)-2-methoxy-5-(oxazol-5-yl) aniline] are 0.82 µg/mL (≈ 2.73 µM), 3.83 µg/mL (≈ 12.8 µM), 9.9 µg/mL (≈ 33 µM) and 26.2 µg/mL (≈ 87.2 µM).
Taken in the same sequence, the figures for `COc1cc(NCc2ccco2)ccc1-c1cnco1` [Compound 41, N-(furan-2-ylmethyl)-3-methoxy-4-(oxazol-5-yl) aniline] were 0.63 µg/mL (≈ 2.33 µM), 1.88 µg/mL (≈ 6.96 µM), 40 µg/mL (≈ 148 µM) and 22.8 µg/mL (≈ 84.2 µM).
Take `COc1cc(/N=C/c2ccc([N+](=O)[O-])o2)ccc1-c1cnco1` [Compound 49, N-(5-nitrofuran-2-methylidene)-3-methoxy-4-(oxazol-5-yl) aniline]: the IC50 in test [3] was determined as 0.82 µg/mL (≈ 2.62 µM); in test [4], 1.53 µg/mL (≈ 4.88 µM); in test [1] it was 0.897 µg/mL (≈ 2.86 µM); in test [2], 4.84 µg/mL (≈ 15.4 µM).
The corresponding values for `COc1cc(NCc2scnc2C)ccc1-c1cnco1` [Compound 54, N-(4-methylthiazol-5-ylmethyl)-3-methoxy-4-(oxazol-5-yl) aniline] are 1.43 µg/mL (≈ 4.74 µM), 3.18 µg/mL (≈ 10.6 µM), 53.3 µg/mL (≈ 177 µM) and 29.5 µg/mL (≈ 97.8 µM).
With `COc1cc(NCc2cncs2)ccc1-c1cnco1` [Compound 55, N-(thiazol-5-ylmethyl)-3-methoxy-4-(oxazol-5-yl) aniline], the IC50 in test [3] was 1.88 µg/mL (≈ 6.54 µM); in test [4], 3.25 µg/mL (≈ 11.3 µM); in test [1], 42.1 µg/mL (≈ 147 µM); in test [2], 31.9 µg/mL (≈ 111 µM).
`COc1cc(NCc2ccncc2)ccc1-c1cnco1` [Compound 56, N-(pyridin-4-ylmethyl)-3-methoxy-4-(oxazol-5-yl) aniline]: in the test with IMPDH, the “inhibition rate (%) 10 μg/mL” value is 37.4%. Also, the IC50 stood at 5.75 µg/mL (≈ 20.4 µM) in test [3] and 4.28 µg/mL (≈ 15.2 µM) in test [4].
`COc1cc(NC/C=C/c2ccccc2)ccc1-c1cnco1` [Compound 62]: the IC50 is 0.63 µg/mL (≈ 2.06 µM) in test [3], 1.43 µg/mL (≈ 4.67 µM) in test [4], above 100 µg/mL in test [1] and 32 µg/mL (≈ 105 µM) in test [2].
On to `COc1cc(/N=C/C=C/c2ccccc2)ccc1-c1cnco1` [Compound 65, N-(phenylpropen-1-ylidene)-3-methoxy-4-(oxazol-5-yl)-aniline], for which, in the test on IMPDH, the “inhibition rate (%) 10 μg/mL” value is listed as 32.0%. Besides, the IC50 in test [3] was 1.23 µg/mL (≈ 4.04 µM); in test [4] it was 5.75 µg/mL (≈ 18.9 µM).
With `COc1cc(NC/C=C(/C)CCC=C(C)C)ccc1-c1cnco1` [Compound 71, N-(3,7-dimethyl-octa-2,6-dienyl)-3-methoxy-4-(oxazol-5-yl) aniline], the concentration for half-maximal inhibition (IC50) in test [3] was 1.25 µg/mL (≈ 3.83 µM); in test [4] it was above 0.82 µg/mL.
The corresponding values for `NC(=O)c1ncn([C@@H]2O[C@H](CO)[C@@H](O)[C@H]2O)n1` [RBV, ribavirin, reference compound] are 222 µg/mL (≈ 910 µM) and 222 µg/mL (≈ 910 µM).
